# Assay results reported in PMC7219735, “Crystal structure of Thermus thermophilus methylenetetrahydrofolate dehydrogenase and determinants of thermostability” (PLoS ONE, 2020).
# Molecular target: T1, T. thermophilus methylenetetrahydrofolate dehydrogenase (TtMTHFD) (Thermus thermophilus, UniProt Q5SJ94)
# T1 construct: gene folD; His-tagged (pQtev, tag removal not mentioned), expressed in E. coli BL21(DE3), 33 kDa, dimer; 277 residues in the model, one chain per asymmetric unit
# T1 sequence (Q5SJ94 1-282): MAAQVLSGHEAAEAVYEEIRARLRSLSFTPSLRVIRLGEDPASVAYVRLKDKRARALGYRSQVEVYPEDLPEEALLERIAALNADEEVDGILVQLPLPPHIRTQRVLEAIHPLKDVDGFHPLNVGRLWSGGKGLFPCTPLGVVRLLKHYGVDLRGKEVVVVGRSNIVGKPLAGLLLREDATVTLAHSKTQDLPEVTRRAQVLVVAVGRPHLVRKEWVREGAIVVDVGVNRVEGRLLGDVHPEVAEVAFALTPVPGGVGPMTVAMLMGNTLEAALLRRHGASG
# Assay: X-ray crystal structure, […] A
# Conditions: crystals from 800 mM potassium sodium tartrate, 100 mM HEPES pH 7.5; nucleotide binding domain; NADP+ addition not described
smiles,measurement,value
NC(=O)c1ccc[n+]([C@@H]2O[C@H](COP(=O)(O)OP(=O)(O)OC[C@H]3O[C@@H](n4cnc5c(N)ncnc54)[C@H](OP(=O)(O)O)[C@@H]3O)[C@@H](O)[C@H]2O)c1 [NADP^+],"X-ray crystal structure, 2.15 A",we were able to unambiguously identify and fit a molecule of NADP^+
